Molecular target: T1, HIV-I reverse transcriptase (Human immunodeficiency virus type 1 group M subtype B, UniProt P04585)
T1 construct: HIV-I RNA-dependent DNA polymerase (reverse transcriptase); purchased Worthington LS05006
Assay: Reaction progress luminescence assay of cDNA synthesis by HIV-I reverse transcriptase (luciferase detection of dATP)
Format: biochemical
Protocol: The reaction was set by adding: 16 µL of RNAse-free water; 2 µL of 10× reaction buffer (400 mM Tris-HCl, 60 mM MgCl2, 100 mM Dithiothreitol, 20 mM spermidine, pH 7.9 @ 25° C.); 2 µL of template, polyuridylic acid at 1 µg/µL (Midland Certified Reagent Company, Cat. No. P-3004); 2 µL of primer poly(A)18 at 0.5 µg/µL (Polydeoxyadenylate, 18 base long purchased from Integrated DNA technologies); 20 µM of dATP; 3 U of HIV-I (Worthington, Cat. No. LS05006); 3 µL of ATP detection solution prepared by diluting luciferase (EC 1.13.12.7) at 3 µg/mL in 0.1M Tris-acetate pH 7.7, 2 mM EDTA, 10 mM magnesium acetate, 0.1% BSA, 1 mM dithiothreitol, 0.4 mg/mL PVP, and 0.4 mM D-luciferin. A 5 µL of reaction solution has been added to a well of 384-well plate and the luminescence intensity vs. time was recorded on Orion II microplate luminometer at 25° C. (Berthold detection Systems (Pforzheim, Germany)). A first derivative, ∂l(t)l∂t, for the luminescence intensity has been calculated. The derivative was calculated by selecting a group of three or more consecutive measurements of the luminescence intensity and calculating by a least square method the “instant” slope of the luminescent intensity which said slope represents the first derivative of the luminescence at the time when the respective measurements were made. […]

Q: For `C[C@H](Cn1cnc2c(N)ncnc21)OCP(=O)(O)O` [MT-4S], which “mechanism of inhibition (crossing of trend lines)” value (MT-4S at 1.2 nM and 3.7 nM) is on record?
A: Its value is “non-competitive”.

Q: What about the Ki (inhibitor at 0, 1.2 and 3.7 nM, 20 μM dATP, 25° C., read-out: inhibition constant Ki) of the same molecule?
A: The Ki was 0.9 ± 0.15 nM.

From patent publication US20110245091A1, “REACTION PROGRESS ASSAY FOR SCREENING BIOLOGICAL ACTIVITY OF ENZYMES” (priority 2010, published 2011)
